Experiment [1] has as its target T1, eqBChE (BChE from equine serum) (Equus caballus, UniProt P81908).
T1 construct: BChE (E.C. 3.1.1.8, from equine serum); purchased Sigma-Aldrich; host or cells: equine serum
Kind of experiment: biochemical. How it is done: (§1) AChE (E.C. 3.1.1.7, Type V-S, lyophilized powder, from electric eel, 1000 unit), BChE (E.C. 3.1.1.8, from equine serum), ATCI, BTCI, and DTNB were purchased from Sigma-Aldrich. To the experimental group in a 96-well plate, 10 μl AChE or BChE (final concentration is 0.04 U/ml), 25 μl tested compounds, and 65 μl PBS buffer was sequentially added. For the control group, all components were in accordance with those in the experimental group, except that 25 μl tested compounds were replaced by equal volume of PBS. For the blank group, only 100 μl PBS was added. […] The calculation formula is: inhibition rate% = (ODcontrol-ODtest)/(ODcontrol-ODblank)*100.
3. Screen of the most appropriate incubation time for compounds and
In order to find the most appropriate incubation time for compounds and enzyme, to verify whether the incubation time of 25 min is appropriate, and to further improve […]
time, made the inhibition rate-incubation time curves (Figure S1), and calculated the IC50 values of these compounds under different incubation time (Table S1).

Experiment [2] has as its target T2, eeAChE (AChE from electric eel) (Electrophorus electricus, UniProt O42275).
T2 construct: AChE (E.C. 3.1.1.7, Type V-S, lyophilized powder, from electric eel, 1000 unit); purchased Sigma-Aldrich Type V-S; host or cells: electric eel
In words: biochemical. Particulars: incubation time 25 min; mean ± SD, at least three independent experiments. The procedure:
as §1

In a further experiment the target is T3, eqBChE (Equus caballus, UniProt P81908).
T3 construct: BChE (E.C. 3.1.1.8, from equine serum); purchased Sigma-Aldrich; host or cells: equine serum
Kind of experiment: Inhibition kinetics of butyrylcholinesterase (reversibility, Lineweaver-Burk, Ki replot). Format: biochemical. The text has this:
According to the type of interaction between inhibitor and enzyme, there are three reaction types including the reversible, irreversible, and pseudo-irreversible reactions in the cholinesterase catalyzed reaction, and each type has its representative characteristics. By studying the reaction rate changes in enzymatic reactions in the presence of inhibitors, the mechanism of action of inhibitors on enzymes, viz the inhibition type could be determined, which is of great significance for further structural modification and the discovery of compounds with better enzyme inhibitory activity. To reveal the interaction between synthesized inhibitors and eq BChE, we initially chose compound 3p as an example and studied the reversibility of enzymatic reaction in the presence of inhibitor. When the final concentration of substrate BTCI was fixed at 0.2 mM, we deduced from Figure 2A that both compound 3p increased the enzymatic reaction rate to varying degrees with the increase of enzyme concentration. When both the concentrations of eq BChE and BTCI remained constant, the rate of the enzymatic reaction decreased with the increase of inhibitor concentration.
In the process of reversible inhibition reaction, inhibitors can be divided into competitive, non-competitive, mixed competitive, and anti-competitive inhibitors according to the effect of inhibitors and substrate on enzyme ([Liu et al., 2022]). […] For compound 3p, the Km values increased while the Vmax values decreased compared with those in the absence of inhibitors, which was not in accordance with the characteristics of competitive, non-competitive, and anti-competitive inhibitors. Therefore, non-competitive in combination with competitive inhibition and/or non-competitive in combination with anti-competitive inhibition maybe existed in the reaction systems of compound 3p with enzyme (Figure 2B). […] However, the binding affinity of compounds 3p with the free enzyme or the substrate-enzyme complex was different. […]

[3] abbreviates: incubation time 25 min, mean ± SD, at least three independent experiments, read-out: IC50 eqBChE.
[4] abbreviates: incubation time 5 min, read-out: IC50 eqBChE under different incubation time.
[5] abbreviates: incubation time 10 min, read-out: IC50 eqBChE under different incubation time.
Setting [6] is: incubation time 15 min, read-out: IC50 eqBChE under different incubation time.
[7] abbreviates: incubation time 45 min, read-out: IC50 eqBChE under different incubation time.
[8] abbreviates: incubation time 65 min, read-out: IC50 eqBChE under different incubation time.
The mark [9] stands for this setting: incubation time 85 min, read-out: IC50 eqBChE under different incubation time.

Data on 19 compounds can be found in PMC9763612, “Discovery of pyrrole derivatives as acetylcholinesterase-sparing butyrylcholinesterase inhibitor” (Frontiers in Pharmacology, 2022).

Like-named read-outs stand apart in the source and are kept apart here.

For orientation: IC50 means the point on the concentration scale where inhibition reaches its midpoint. In general, Ki refers to the dissociation constant of the complex between target and ligand, obtained from inhibition or displacement.

T2 sequence (O42275 24-633): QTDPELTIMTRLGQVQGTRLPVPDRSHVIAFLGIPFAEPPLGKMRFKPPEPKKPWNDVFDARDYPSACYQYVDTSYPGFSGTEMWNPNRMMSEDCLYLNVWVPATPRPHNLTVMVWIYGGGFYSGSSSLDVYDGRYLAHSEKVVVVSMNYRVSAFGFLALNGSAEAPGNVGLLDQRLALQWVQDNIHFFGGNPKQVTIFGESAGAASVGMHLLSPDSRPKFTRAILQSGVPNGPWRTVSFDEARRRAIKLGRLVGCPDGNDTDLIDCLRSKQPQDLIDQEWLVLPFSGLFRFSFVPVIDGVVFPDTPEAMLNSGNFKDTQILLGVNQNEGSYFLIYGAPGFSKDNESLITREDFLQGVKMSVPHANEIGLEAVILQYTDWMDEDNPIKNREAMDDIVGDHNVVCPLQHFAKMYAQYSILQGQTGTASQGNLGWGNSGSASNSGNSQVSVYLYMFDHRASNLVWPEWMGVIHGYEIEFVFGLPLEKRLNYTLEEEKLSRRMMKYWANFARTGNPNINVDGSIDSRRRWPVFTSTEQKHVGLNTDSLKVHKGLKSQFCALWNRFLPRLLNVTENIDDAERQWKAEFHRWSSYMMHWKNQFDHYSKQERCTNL
T3 sequence (P81908 whole entry): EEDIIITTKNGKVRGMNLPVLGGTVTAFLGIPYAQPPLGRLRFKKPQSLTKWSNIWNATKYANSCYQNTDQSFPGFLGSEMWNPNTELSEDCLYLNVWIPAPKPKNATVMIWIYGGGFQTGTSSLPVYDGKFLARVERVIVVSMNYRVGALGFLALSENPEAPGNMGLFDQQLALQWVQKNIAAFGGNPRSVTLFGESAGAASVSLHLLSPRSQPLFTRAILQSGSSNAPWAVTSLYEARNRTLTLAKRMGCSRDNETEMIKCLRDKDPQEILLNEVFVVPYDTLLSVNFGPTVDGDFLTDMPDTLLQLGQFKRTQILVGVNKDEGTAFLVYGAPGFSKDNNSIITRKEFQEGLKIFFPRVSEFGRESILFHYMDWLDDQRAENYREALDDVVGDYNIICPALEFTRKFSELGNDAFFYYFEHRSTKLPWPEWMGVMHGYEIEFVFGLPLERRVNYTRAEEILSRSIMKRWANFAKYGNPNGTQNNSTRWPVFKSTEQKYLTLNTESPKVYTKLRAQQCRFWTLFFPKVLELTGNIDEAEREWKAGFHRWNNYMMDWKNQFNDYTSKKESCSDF
T1 sequence (P81908 whole entry): as above

As to `Cc1ccccc1-n1cccc1` [Compound 3a], the IC50 in experiment [1] (setting [3]) and in experiment [2] was over 50 µM each time.

Turning to `Clc1ccccc1-n1cccc1` [Compound 3b], the IC50 in experiment [1] (setting [3]) and in experiment [2] was over 50 µM each time.

As to `Cc1cccc(-n2cccc2)c1` [Compound 3c], the IC50 in experiment [1] (setting [3]) and in experiment [2] was over 50 µM in each case.

As to `Brc1cccc(-n2cccc2)c1` [Compound 3d], the IC50 in experiment [1] (setting [3]) and in experiment [2] was over 50 µM throughout.

As for `CC(C)c1ccc(-n2cccc2)cc1` [Compound 3e], the IC50 in experiment [1] (setting [3]) and in experiment [2] was over 50 µM each time.

For `CSc1ccc(-n2cccc2)cc1` [Compound 3f], the IC50 in experiment [1] (setting [3]) and in experiment [2] was over 50 µM throughout.

As to `Brc1ccc(-n2cccc2)cc1` [Compound 3g], the IC50 in experiment [1] (setting [3]) and in experiment [2] was over 50 µM throughout.

For `COC(=O)c1ccc(-n2cccc2)cc1` [Compound 3h], the IC50 in experiment [1] (setting [3]) and in experiment [2] was over 50 µM throughout.

`Cc1cccc(C)c1-n1cccc1` [Compound 3i]: the IC50 in experiment [1] (setting [3]) and in experiment [2] was over 50 µM in each case.

Take `c1ccc(-n2cccc2)nc1` [Compound 3j]: the IC50 in experiment [1] (setting [3]) and in experiment [2] was over 50 µM throughout.

For the compound `Cc1cc(-n2cccc2)no1` [Compound 3k], the IC50 in experiment [1] (setting [3]) and in experiment [2] was over 50 µM in each case.

For the compound `c1ccc2nc(-n3cccc3)cnc2c1` [Compound 3l], the IC50 in experiment [1] (setting [3]) and in experiment [2] was over 50 µM throughout.

As for `c1ccc(Cc2ccn(-c3ccccc3)c2)cc1` [Compound 3m], the IC50 in experiment [1] (setting [3]) and in experiment [2] was over 50 µM each time.

For the compound `c1ccc(-c2ccn(-c3ccccc3)c2)cc1` [Compound 3n], the IC50 in experiment [1] (setting [3]) and in experiment [2] was over 50 µM each time.

With `COc1ccccc1-c1ccn(-c2ccccc2)c1` [Compound 3o], the IC50 in experiment [1] (setting [4]) was found to be 4.8 ± 0.38 µM; in experiment [1] (setting [5]), 5.06 ± 1.2 µM; in experiment [1] (setting [6]), 6.87 ± 0.6 µM; in experiment [1] (setting [3]), 5.37 ± 0.36 µM; in experiment [1] (setting [7]) it was 6.67 ± 0.61 µM; in experiment [1] (setting [8]), 6.83 ± 0.24 µM. For the same compound, the IC50 is 7.63 ± 0.77 µM in experiment [1] (setting [9]) and over 50 µM in experiment [2].

For the compound `Clc1ccccc1-c1ccn(-c2ccccc2)c1` [Compound 3p], the IC50 was 0.6 ± 0.1 µM in experiment [1] (setting [4]); 0.48 ± 0.24 µM in experiment [1] (setting [5]); 1.95 ± 0.13 µM in experiment [1] (setting [6]); 1.71 ± 0.087 µM in experiment [1] (setting [3]); 2.4 ± 0.11 µM in experiment [1] (setting [7]); 3.27 ± 0.49 µM in experiment [1] (setting [8]). Further, the IC50 in experiment [1] (setting [9]) was 3.2 ± 0.092 µM; in experiment [2], over 50 µM. The Inhibition mode result at eqBChE (Lineweaver-Burk plots) is “mixed competitive inhibition”. At eqBChE (rate vs. enzyme concentration, BTCI 0.2 mM), the Reversibility of inhibition result is recorded as “reversible”. Also, the Ki at eqBChE (replot of Lineweaver-Burk slopes vs. inhibitor concentration) was 0.281 µM.

As to `COc1cccc(-c2ccn(-c3ccccc3)c2)c1` [Compound 3q], the IC50 in experiment [1] (setting [3]) and in experiment [2] was over 50 µM throughout.

`FC(F)(F)c1cccc(-c2ccn(-c3ccccc3)c2)c1` [Compound 3r]: the IC50 in experiment [1] (setting [3]) and in experiment [2] was over 50 µM throughout.

Take `c1ccc(-c2ccc(-c3ccn(-c4ccccc4)c3)cc2)cc1` [Compound 3s]: the IC50 was 5.87 ± 0.23 µM in experiment [1] (setting [4]); 5.95 ± 0.3 µM in experiment [1] (setting [5]); 6.05 ± 0.65 µM in experiment [1] (setting [6]); 3.76 ± 0.25 µM in experiment [1] (setting [3]); 4.41 ± 0.15 µM in experiment [1] (setting [7]); 4.21 ± 0.075 µM in experiment [1] (setting [8]). Also, the figures for the IC50 in experiment [1] (setting [9]) and in experiment [2] were 4.38 ± 0.18 µM and over 50 µM, respectively.
